# Experimental data as given in patent US11858945B2, “Alkyne-containing antiviral agents” (Enanta Pharmaceuticals, Inc., priority 2021, dated 2024).
# Molecular target: SARS-CoV-2 3CL-protease (Severe acute respiratory syndrome coronavirus 2 (2019-nCoV) (SARS-CoV-2), UniProt P0DTD1)
# Experiment: SARS-CoV-2 3C-like (3CL) protease fluorescence assay (FRET)
# Format: biochemical
# Conditions: recombinant SARS-CoV-2 3CL-protease 10 nM, 30 min preincubation at RT, peptide substrate, run in duplicate; IC50 ranges
row,Structure (SMILES),IC50 [nM]
1,"C#C[C@@H]1C[C@@]2(CN1C(=O)[C@H](CC(C)(C)F)NC(=O)c1cc3cc(S(C)(=O)=O)ccc3[nH]1)C(=O)Nc1ccccc12 [Compound 1, N—((S)-1-((3R,5′S)-5′-ethynyl-2-oxospiro[indoline-3,3′-pyrrolidin]-1′-yl)-4-fluoro-4-methyl-1-oxopentan-2-yl)-5-(methylsulfonyl)-1H-indole-2-carboxamide]",100 to 1000
2,"C#C[C@@H]1C[C@@]2(CN1C(=O)[C@H](CC(C)(C)F)NC(=O)c1cc3c(Cl)cccc3[nH]1)C(=O)Nc1ccccc12 [Compound 2, 4-chloro-N—((S)-1-((3R,5′S)-5′-ethynyl-2-oxospiro[indoline-3,3′-pyrrolidin]-1′-yl)-4-fluoro-4-methyl-1-oxopentan-2-yl)-1H-indole-2-carboxamide]",100 to 1000
3,"C#C[C@@H]1C[C@@]2(CN1C(=O)[C@H](CC(C)(C)F)NC(=O)c1cc3cc(Cl)ccc3[nH]1)C(=O)Nc1ccccc12 [Compound 3, 5-chloro-N—((S)-1-((3R,5′S)-5′-ethynyl-2-oxospiro[indoline-3,3′-pyrrolidin]-1′-yl)-4-fluoro-4-methyl-1-oxopentan-2-yl)-1H-indole-2-carboxamide]",100 to 1000
4,"C#C[C@@H]1C[C@@]2(CN1C(=O)[C@H](CC(C)(C)F)NC(=O)c1cc3ccc(Cl)cc3[nH]1)C(=O)Nc1ccccc12 [Compound 4, 6-chloro-N—((S)-1-((3R,5′S)-5′-ethynyl-2-oxospiro[indoline-3,3′-pyrrolidin]-1′-yl)-4-fluoro-4-methyl-1-oxopentan-2-yl)-1H-indole-2-carboxamide]",< 100
5,"C#C[C@@H]1C[C@@]2(CN1C(=O)[C@H](CC(C)(C)F)NC(=O)c1cc3cccc(Cl)c3[nH]1)C(=O)Nc1ccccc12 [Compound 5, 7-chloro-N—((S)-1-((3R,5′S)-5′-ethynyl-2-oxospiro[indoline-3,3′-pyrrolidin]-1′-yl)-4-fluoro-4-methyl-1-oxopentan-2-yl)-1H-indole-2-carboxamide]",< 100
6,"C#C[C@@H]1C[C@@]2(CN1C(=O)[C@H](CC(C)(C)F)NC(=O)c1cc3c(Cl)cc(Cl)cc3[nH]1)C(=O)Nc1ccccc12 [Compound 6, 4,6-dichloro-N—((S)-1-((3R,5′S)-5′-ethynyl-2-oxospiro[indoline-3,3′-pyrrolidin]-1′-yl)-4-fluoro-4-methyl-1-oxopentan-2-yl)-1H-indole-2-carboxamide]",100 to 1000
7,"C#C[C@@H]1C[C@@]2(CN1C(=O)[C@H](CC(C)(C)F)NC(=O)c1cc3ccc(Cl)c(Cl)c3[nH]1)C(=O)Nc1ccccc12 [Compound 7, 6,7-dichloro-N—((S)-1-((3R,5′S)-5′-ethynyl-2-oxospiro[indoline-3,3′-pyrrolidin]-1′-yl)-4-fluoro-4-methyl-1-oxopentan-2-yl)-1H-indole-2-carboxamide]",< 100
8,"C#C[C@@H]1C[C@@]2(CN1C(=O)[C@H](CC(C)(C)F)NC(=O)c1cc3cccc(F)c3[nH]1)C(=O)Nc1ccccc12 [Compound 8, N—((S)-1-((3R,5′S)-5′-ethynyl-2-oxospiro[indoline-3,3′-pyrrolidin]-1′-yl)-4-fluoro-4-methyl-1-oxopentan-2-yl)-7-fluoro-1H-indole-2-carboxamide]",< 100
9,"C#C[C@@H]1C[C@@]2(CN1C(=O)[C@H](CC(C)(C)F)NC(=O)c1cc3ccc(F)cc3[nH]1)C(=O)Nc1ccccc12 [Compound 9, N—((S)-1-((3R,5′S)-5′-ethynyl-2-oxospiro[indoline-3,3′-pyrrolidin]-1′-yl)-4-fluoro-4-methyl-1-oxopentan-2-yl)-6-fluoro-1H-indole-2-carboxamide]",< 100
10,"C#C[C@@H]1C[C@@]2(CN1C(=O)[C@H](CC(C)(C)F)NC(=O)c1cc3c(F)cc(F)cc3[nH]1)C(=O)Nc1ccccc12 [Compound 10, N—((S)-1-((3R,5′S)-5′-ethynyl-2-oxospiro[indoline-3,3′-pyrrolidin]-1′-yl)-4-fluoro-4-methyl-1-oxopentan-2-yl)-4,6-difluoro-1H-indole-2-carboxamide]",100 to 1000
11,"C#C[C@@H]1C[C@@]2(CN1C(=O)[C@H](CC(C)(C)F)NC(=O)c1cc3c(F)ccc(F)c3[nH]1)C(=O)Nc1ccccc12 [Compound 11, N—((S)-1-((3R,5′S)-5′-ethynyl-2-oxospiro[indoline-3,3′-pyrrolidin]-1′-yl)-4-fluoro-4-methyl-1-oxopentan-2-yl)-4,7-difluoro-1H-indole-2-carboxamide]",< 100
12,"C#C[C@@H]1C[C@@]2(CN1C(=O)[C@H](CC(C)(C)F)NC(=O)c1cc3cc(F)c(F)c(F)c3[nH]1)C(=O)Nc1ccccc12 [Compound 12, N—((S)-1-((3R,5′S)-5′-ethynyl-2-oxospiro[indoline-3,3′-pyrrolidin]-1′-yl)-4-fluoro-4-methyl-1-oxopentan-2-yl)-5,6,7-trifluoro-1H-indole-2-carboxamide]",< 100
13,"C#C[C@@H]1C[C@@]2(CN1C(=O)[C@H](CC(C)(C)F)NC(=O)c1cc3cccc(C(F)(F)F)c3[nH]1)C(=O)Nc1ccccc12 [Compound 13, N—((S)-1-((3R,5′S)-5′-ethynyl-2-oxospiro[indoline-3,3′-pyrrolidin]-1′-yl)-4-fluoro-4-methyl-1-oxopentan-2-yl)-7-(trifluoromethyl)-1H-indole-2-carboxamide]",< 100
14,"C#C[C@@H]1C[C@@]2(CN1C(=O)[C@H](CC(C)(C)F)NC(=O)c1cc3cc(C(F)(F)F)ccc3[nH]1)C(=O)Nc1ccccc12 [Compound 14, N—((S)-1-((3R,5′S)-5′-ethynyl-2-oxospiro[indoline-3,3′-pyrrolidin]-1′-yl)-4-fluoro-4-methyl-1-oxopentan-2-yl)-5-(trifluoromethyl)-1H-indole-2-carboxamide]",100 to 1000
15,"C#C[C@@H]1C[C@@]2(CN1C(=O)[C@H](CC(C)(C)F)NC(=O)c1cc3cccc(C#N)c3[nH]1)C(=O)Nc1ccccc12 [Compound 15, 7-cyano-N—((S)-1-((3R,5′S)-5′-ethynyl-2-oxospiro[indoline-3,3′-pyrrolidin]-1′-yl)-4-fluoro-4-methyl-1-oxopentan-2-yl)-1H-indole-2-carboxamide]",< 100
16,"C#C[C@@H]1C[C@@]2(CN1C(=O)[C@H](CC(C)(C)F)NC(=O)c1cc3cccnc3[nH]1)C(=O)Nc1ccccc12 [Compound 16, N—((S)-1-((3R,5′S)-5′-ethynyl-2-oxospiro[indoline-3,3′-pyrrolidin]-1′-yl)-4-fluoro-4-methyl-1-oxopentan-2-yl)-1H-pyrrolo[2,3-b]pyridine-2-carboxamide]",100 to 1000
17,"C#C[C@@H]1C[C@@]2(CN1C(=O)[C@H](CC(C)(C)F)NC(=O)c1cc3cccc(F)c3o1)C(=O)Nc1ccccc12 [Compound 17, N—((S)-1-((3R,5′S)-5′-ethynyl-2-oxospiro[indoline-3,3′-pyrrolidin]-1′-yl)-4-fluoro-4-methyl-1-oxopentan-2-yl)-7-fluorobenzofuran-2-carboxamide]",> 1000
18,"C#C[C@@H]1C[C@@]2(CN1C(=O)[C@H](CC(C)(C)F)NC(=O)c1cc3cc(F)ccc3o1)C(=O)Nc1ccccc12 [Compound 18, N—((S)-1-((3R,5′S)-5′-ethynyl-2-oxospiro[indoline-3,3′-pyrrolidin]-1′-yl)-4-fluoro-4-methyl-1-oxopentan-2-yl)-5-fluorobenzofuran-2-carboxamide]",> 1000
19,"C#C[C@@H]1C[C@@]2(CN1C(=O)[C@H](CC(C)(C)F)NC(=O)c1cc(F)c3ncccc3c1)C(=O)Nc1ccccc12 [Compound 19, N—((S)-1-((3R,5′S)-5′-ethynyl-2-oxospiro[indoline-3,3′-pyrrolidin]-1′-yl)-4-fluoro-4-methyl-1-oxopentan-2-yl)-8-fluoroquinoline-6-carboxamide]",> 1000
20,"C#C[C@@H]1C[C@@]2(CN1C(=O)[C@H](CC(C)(C)F)NC(=O)c1cccc(OC(F)(F)F)c1)C(=O)Nc1ccccc12 [Compound 20, N—((S)-1-((3R,5′S)-5′-ethynyl-2-oxospiro[indoline-3,3′-pyrrolidin]-1′-yl)-4-fluoro-4-methyl-1-oxopentan-2-yl)-3-(trifluoromethoxy)benzamide]",100 to 1000
21,"C#C[C@@H]1C[C@@]2(CN1C(=O)[C@H](CC(C)(C)F)NC(=O)c1c(Cl)cccc1Cl)C(=O)Nc1ccccc12 [Compound 21, 2,6-dichloro-N—((S)-1-((3R,5′S)-5′-ethynyl-2-oxospiro[indoline-3,3′-pyrrolidin]-1′-yl)-4-fluoro-4-methyl-1-oxopentan-2-yl)benzamide]",> 1000
